Measurements: ChEMBL document CHEMBL1201862, “PubChem BioAssay data set” (2004)
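Each compound was tested at five concentrations against cells in 96-well plates for 48 hours. Here, GI50 denotes the concentration required for 50% inhibition of growth.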 Activity calls are given as the source filed them. No stated cut-off is given here; in the data, active = GI50 up to about 1.1 µM and inactive = higher.

Legend:
Assay in all cases: NCI anticancer screen, dose series, 48 h
DMS-114 = test system: DMS-114
HOP-18 = test system: HOP-18
KM-20L2 = test system: KM-20L2
LXFL 529 = test system: LXFL 529
M19-MEL = test system: M19-MEL
RXF 631 = test system: RXF 631
SNB-78 = test system: SNB-78
T47D = test system: T47D
XF498 = test system: XF498

With `CC(C)(C)c1cc(CCC(=O)Nc2ccc(Cl)cc2Cl)nc(N)n1` the GI50 (DMS-114) was > 100 µM (inactive), the GI50 (HOP-18) was > 100 µM (inactive) and the GI50 (KM-20L2) was > 100 µM (inactive). For the same compound, the GI50 (LXFL 529) was > 100 µM (inactive), the GI50 (M19-MEL) was > 100 µM (inactive) and the GI50 (RXF 631) was > 100 µM (inactive). The GI50 (SNB-78) was > 100 µM (inactive).

For `O=C1O/C(=C(\Br)c2ccc([N+](=O)[O-])cc2)c2ccccc21`, the GI50 (T47D) was 86.5 µM (inactive).

In the case of `CC(=O)O[C@H]1CC[C@@]2(C)C(=CC[C@H]3[C@@H]4C[C@H](N5CCOCC5)[C@H](OC(C)=O)[C@@]4(C)CC[C@@H]32)C1`, the GI50 (T47D) is reported as > 100 µM (inactive).

`CC(C)Oc1cccc(N2C(CCc3c[nH]c4ccc(Br)cc34)=NS(=O)(=O)c3cnccc32)c1` was tested, and the GI50 (T47D) was 21.2 µM (inactive).

`Cc1ccc(NC(=O)CC2SC(Nc3cccc(Cl)c3C)=NC2=O)cc1` (stereo not drawn) was tested, and the GI50 (DMS-114) was 29.9 µM (inactive), the GI50 (KM-20L2) was 70.8 µM (inactive) and the GI50 (LXFL 529) was 32.4 µM (inactive). For the same compound, the GI50 (M19-MEL) was 71 µM (inactive), the GI50 (RXF 631) was > 100 µM (inactive) and the GI50 (SNB-78) was 60.7 µM (inactive). For the same compound, the GI50 (XF498) was 46.2 µM (inactive).

`O=C1CC(c2ccc([N+](=O)[O-])cc2)C2(C(=O)NC(=S)NC2=O)C(c2ccc([N+](=O)[O-])cc2)C1` (stereo not drawn) was tested, and the GI50 (T47D) was 51.3 µM (inactive).

`CCCCCCCCCc1cc(=O)c2ccc(OCc3ccccc3)cc2o1` was tested, and the GI50 (DMS-114) was 92.9 µM (inactive), the GI50 (HOP-18) was > 100 µM (inactive) and the GI50 (KM-20L2) was > 100 µM (inactive). For the same compound, the GI50 (LXFL 529) was 73.8 µM (inactive), the GI50 (M19-MEL) was 69.7 µM (inactive) and the GI50 (SNB-78) was > 100 µM (inactive). For the same compound, the GI50 (XF498) was > 100 µM (inactive).

`CC1CCCC(C(=O)/C(=C/c2cccc(Cl)c2)C(=O)C(=O)O)C1` (stereo not drawn) was tested, and the GI50 (DMS-114) was 21 µM (inactive), the GI50 (HOP-18) was 91 µM (inactive) and the GI50 (KM-20L2) was 25.9 µM (inactive). The GI50 (LXFL 529) was 19.7 µM (inactive), the GI50 (M19-MEL) was 18.7 µM (inactive) and the GI50 (SNB-78) was 55.2 µM (inactive).

For `CC1=C(C(=O)OCCc2ccc([N+](=O)[O-])cc2)C(c2ccccc2[N+](=O)[O-])C(C(=O)OC(C)C)=C(C)N1` (stereo not drawn), the GI50 (T47D) was 3.9 µM (inactive).

In the case of `Cc1nc(=O)n2c(C)n[nH]c2c1C(=O)Nc1cc(Cl)cc(Cl)c1`, the GI50 (LXFL 529) is reported as 29.8 µM (inactive), the GI50 (M19-MEL) is reported as 27.3 µM (inactive) and the GI50 (SNB-78) is reported as 32.4 µM (inactive).

For `O=C1/C(=C/c2ccc(Cl)cc2)N=C(c2ccccc2)N1c1ccc(S(=O)(=O)Nc2nccs2)cc1`, the GI50 (T47D) was 21.7 µM (inactive).

For `COc1ccc(OC)c2c1C(=O)C1CC1(Br)C2=O` (stereo not drawn), the GI50 (DMS-114) was > 100 µM (inactive), the GI50 (KM-20L2) was > 100 µM (inactive) and the GI50 (LXFL 529) was > 100 µM (inactive). For the same compound, the GI50 (M19-MEL) was > 100 µM (inactive) and the GI50 (XF498) was > 100 µM (inactive).

In the case of `COc1ccc(S(=O)(=O)Nc2ccc(-c3csc(N4C(=O)/C(=C/c5ccccc5)N=C4c4ccccc4)n3)cc2)cc1Cl`, the GI50 (T47D) is reported as 17.9 µM (inactive).

For `CCOC(=O)C1=c2[nH]c3cccc4cccc(c43)n2C(=O)CC1c1ccccc1` (stereo not drawn), the GI50 (T47D) was > 100 µM (inactive).

In the case of `O=c1n(CCCN2CCOCC2)nc2n1-c1ccc3ccccc3c1SC2`, the GI50 (T47D) is reported as 61.8 µM (inactive).

With `OCCC1(O)CCC(O)CC1` (stereo not drawn) the GI50 (DMS-114) was > 100 µM (inactive), the GI50 (HOP-18) was > 100 µM (inactive) and the GI50 (LXFL 529) was > 100 µM (inactive). For the same compound, the GI50 (M19-MEL) was > 100 µM (inactive) and the GI50 (SNB-78) was > 100 µM (inactive).

In the case of `COc1c(O)cc2c(c1O)C(=O)C(Cc1ccc(O)cc1)CO2` (stereo not drawn), the GI50 (T47D) is reported as > 100 µM (inactive).

For `O=C(Cc1ccccc1)N/N=C/c1ccccc1O`, the GI50 (T47D) was 4.29 µM (inactive).

In the case of `CC1(C)S[C@@H]2[C@H](NC(=O)/C=C/c3ccccc3)C(=O)N2[C@H]1C(=O)O`, the GI50 (T47D) is reported as > 100 µM (inactive).

`CNC(=O)c1nn[nH]c1O` was tested, and the GI50 (T47D) was > 100 µM (inactive).

With `CC1CCC2C(C(=O)O[C@H]3C4C=CO[C@@H](OC5OC(CO)C(O)C(O)C5O)C4[C@@]4(CO)O[C@@H]34)=CO[C@@H](OC3OC(CO)C(O)C(O)C3O)C12` (stereo partly drawn) the GI50 (T47D) was > 10 µM (inactive).

`CC1CCC23COC(=O)C2C(O)CCC3C1(C)CC(O)c1ccoc1` (stereo not drawn) was tested, and the GI50 (DMS-114) was > 100 µM (inactive), the GI50 (HOP-18) was > 100 µM (inactive) and the GI50 (KM-20L2) was > 100 µM (inactive). The GI50 (LXFL 529) was > 100 µM (inactive), the GI50 (M19-MEL) was > 100 µM (inactive) and the GI50 (SNB-78) was > 100 µM (inactive). The GI50 (XF498) was > 100 µM (inactive).

For `COc1cccc2c1C(=O)c1c(O)c3c(c(O)c1C2=O)C[C@@](O)(C(=O)CO)CC3OC1CC(N(C)CCOCC(OC(C)=O)OC(C)=O)C(O)C(C)O1` (stereo partly drawn), the GI50 (DMS-114) was > 0.01 µM (active), the GI50 (HOP-18) was > 0.01 µM (active) and the GI50 (KM-20L2) was > 0.01 µM (active). For the same compound, the GI50 (LXFL 529) was > 0.01 µM (active), the GI50 (M19-MEL) was > 0.01 µM (active) and the GI50 (XF498) was > 0.01 µM (active).

For `CCc1nc(N)nc(N)c1-c1ccc(N2CCOCC2)c(N=[N+]=[N-])c1`, the GI50 (T47D) was > 92.7 µM (inactive).

In the case of `CCN(CC)CCNc1ccc2nc(C)n3c4ccc(OC)cc4c(=O)c1c23`, the GI50 (DMS-114) is reported as 2.58 µM (inactive), the GI50 (LXFL 529) is reported as 1.41 µM (inactive) and the GI50 (M19-MEL) is reported as 6.59 µM (inactive). For the same compound, the GI50 (T47D) was 17.8 µM (inactive).

For `CC(O)(c1ccc(OCCC[N+](C)(C)C)cc1)C(C)(O)c1ccc(OCCC[N+](C)(C)C)cc1` (stereo not drawn), the GI50 (DMS-114) was > 100 µM (inactive), the GI50 (HOP-18) was > 100 µM (inactive) and the GI50 (KM-20L2) was > 100 µM (inactive). For the same compound, the GI50 (LXFL 529) was > 100 µM (inactive) and the GI50 (SNB-78) was > 100 µM (inactive).

For `CC1(C)C(=O)N=C(N)N1C(=O)OCc1ccccc1`, the GI50 (T47D) was > 100 µM (inactive).

With `COc1cc(C2Oc3cc(-c4oc5cc(O)cc(O)c5c(=O)c4O)ccc3OC2CO)ccc1O` (stereo not drawn) [DEHYDROSILYLBIN] the GI50 (DMS-114) was 9.86 µM (inactive), the GI50 (LXFL 529) was 5.26 µM (inactive) and the GI50 (M19-MEL) was 14.4 µM (inactive). For the same compound, the GI50 (SNB-78) was > 46.6 µM (inactive) and the GI50 (XF498) was 10.8 µM (inactive).
